Key:
[1] = system: G-quadruplex of HT4 template (four repeats of TTAGGG); test: DNA synthesis arrest assay with BSU-1051, HT4 template; type: biochemical, human
Method: (§1) This assay is a modification of that described by Weitzmann and co-workers (Weitzmann et al., 1996). Briefly, primers (P18, 24 nM) labeled with [γ-^32P] were mixed with template DNA (12 nM)) in a Tris-HCl buffer (10 mM Tris, pH 8.0) containing K^+ (5 mM for the PQ74 template and 50 mM for the HT4 template) and denatured by heating at 90° C. for 5 min. After cooling down to room temperature, BSU-1051 was added at various concentrations and incubated at room temperature for 15 min. The primer extension reactions were initiated by adding dNTP (final concentration 100 μM), MgCl2 (final concentration […]), and Taq DNA polymerase (2.5 U/reaction, Boehringer Mannheim). For sequencing reactions, the TaqTrack Sequencing System (Promega, Wis., Madison) was used. The sequencing reaction buffer was changed to 50 mM Tris-HCl, pH 9.0, 10 mM MgCl, and 50 mM K^+. The reactions were stopped by adding an equal volume of stop buffer (95% formamide, 10 mM EDTA, 10 mM NaOH, 0.1% xylene cyanol, 0.1% bromphenol blue). For the temperature-dependent studies, the ligand concentration was fixed and the primer extension reactions were carried out at the temperatures indicated in methods. The products were separated on a 12% polyacrylamide sequencing gel. The gels were then dried and visualized on a PhosphorImager (Molecular Dynamics model 445 S1). […]

[2] = system: 7-deaza-dG substituted HT4 and PQ74 templates; test: Primer extension on 7-deaza-dG substituted templates; type: biochemical; settings: BSU-1051 up to 50 μM
Method: as §1

[3] = system: G-quadruplex of PQ74 template (four repeats of TTGGGG); test: DNA synthesis arrest assay with BSU-1051, PQ74 template; type: biochemical
Method: This assay is a modification of that described by Weitzmann and co-workers (Weitzmann et al., 1996). Briefly, primers (P18, 24 nM) labeled with [γ-^32P] were mixed with template DNA (12 nM)) in a Tris-HCl buffer (10 mM Tris, pH 8.0) containing K^+ (5 mM for the PQ74 template and 50 mM for the HT4 template) and denatured by heating at 90° C. for 5 min. After cooling down to room temperature, BSU-1051 was added at various concentrations and incubated at room temperature for 15 min. The primer extension reactions were initiated by adding dNTP (final concentration 100 μM), MgCl2 (final concentration […]), and Taq DNA polymerase (2.5 U/reaction, Boehringer Mannheim). For sequencing reactions, the TaqTrack Sequencing System (Promega, Wis., Madison) was used. The sequencing reaction buffer was changed to 50 mM Tris-HCl, pH 9.0, 10 mM MgCl, and 50 mM K^+. The reactions were stopped by adding an equal volume of stop buffer (95% formamide, 10 mM EDTA, 10 mM NaOH, 0.1% xylene cyanol, 0.1% bromphenol blue). For the temperature-dependent studies, the ligand concentration was fixed and the primer extension reactions were carried out at the temperatures indicated in methods. The products were separated on a 12% polyacrylamide sequencing gel. The gels were then dried and visualized on a PhosphorImager (Molecular Dynamics model 445 S1).
Although it has been shown that G-quadruplex structures block primer extension by DNA polymerase in a K^+ dependent manner (Weitzmann et at., 1996), the inventors are unaware of any reports showing enhanced blockage by G-quadruplex—interactive agents. To determine if BSU-1051 binding to G-quadruplex enhances the block to DNA synthesis, primer extension reactions were carried out in the absence and presence of BSU-1051. Taq DNA polymerase primer extension on DNA templates containing four repeats of either TTGGGG (SEQ ID No. 7) (PQ74) or TTAGGG (SEQ ID No. 1) (HT4) in the presence of different concentrations of BSU-1051 at 55° C. were performed. […]

[4] = system: [d(TTAGGGT)]4 G-quadruplex; test: Kinetics of interaction with G-quadruplex DNA (absorption at 488 nm); type: binding, human; settings: 5 μM compound, 50 μM quadruplex, pH 7.0
Method: A solution of 5 μM KeTEL01 in 20 mM phosphate buffer, 100 mM KCl, pH 7.0 was placed in a quartz cuvette and the UV/VIS spectrum determined. An aliquot of a solution of [d(TTAGGGT)]4 (SEQ ID No. 6) was added to the cuvette to afford a final concentration of 50 μM. The cuvette was quickly inverted several times and placed in the spectrophotometer. The absorption of the sample at 488 nm was continuously monitored for 3 hours, during which time, the absorption decreased in a multiexponential function. The time required for the absorption at 488 nm to reach one-half of its equilibrium value was 60 mm.

MCF-7 = test: MTT cytotoxicity assay, MCF-7; type: cell-based, human; settings: MCF-7, 72 hours
Method: (§2) The ability of these compounds to inhibit the proliferative capacity of human cancer cells was determined by a standard MTT assay. Briefly, cells were incubated for 72 hours in the presence of various concentrations of compound, and the cell viability was determined by monitoring the formation of a colored formazan salt of the tetrazolium salt 3-(4,5-dimethylthiazol-2-yl)-2,5-diphenyl tetrazolium bromide (MTT) by viable cells.

[5] = system: calf thymus DNA (double-stranded DNA); test: UV/VIS spectroscopy with double-stranded DNA; type: binding; settings: 20 μM compound, pH 7.0, 100 mM KCl
Method: (§3) The N,N′-bis(3-morpholinopropyl)3,4,9,10-perylenetetracarboxilic acid diimide (KeTEL01) was synthesized from 3,4,9,10-perylenetetracarboxylic acid dianhydride and 3-morpholinopropylamine using a procedure analogous to that described above in example 5.3 for the synthesis of N,N′-bis(2-piperdinoethyl)-3,4,9,10-perylenetetracarboxylic acid diimide. A solution of KeTEL01 was prepared by dissolving 1 mg of KeTEL01 in 300 μL of 1 N HCl. To this solution was added 11 mL of a pH 7.0 buffer containing 20 mM sodium phosphate, 100 mM KCl, 1 mM EDTA, and 0.02% hydroxypropyl-β-cyclodextrin. Aliquots of this stock solution of KeTEL01 were transferred to 8 different quartz cuvettes and diluted into pH 7.0 mM sodium phosphate, 100 mM KCl, 1 mM EDTA buffer to afford solutions in which the concentration of KeTEL01 was 20 μM. To each of the cuvettes was added a solution of [d(TTAGGGT)]4 (SEQ ID No. 6) so that the final concentration of [d(TTAGGGT)]4 (SEQ ID No. 6) in each of the cuvettes was 0, 4, 8, 12, 16, 20, 50, and 80 μM. These solutions were allowed to stand overnight in the dark, and the UV/VIS spectrum of each was determined. […] In a parallel study, changes in the UV/VIS spectrum of a 20 μM solution of KeTEL01 in a pH 7.0 20 mM phosphate buffer containing 100 mM KCl and 1 mM EDTA were determined upon the addition of […] aliquots of a 3 mM (base pair) solution of calf thymus DNA.

human cancer cells = test: MTT assay, human cancer cell lines; type: cell-based; settings: 72 hours; highest concentration tested 100 μM
Method: as §2

PC-3 = test: MTT cytotoxicity assay, PC-3; type: cell-based, human; settings: PC-3, 72 hours
Method: as §2

BT-20 = test: MTT cytotoxicity assay, BT-20; type: cell-based, human; settings: BT-20, 72 hours
Method: as §2

d(TTAGGGT)4 G-quadruplex = test: UV/VIS spectroscopy titration with G-quadruplex; type: binding, human; settings: 20 μM compound, 0-80 μM quadruplex, overnight, pH 7.0
Method: (B) Compounds may be selected for their ability to interact with human DNA G-quadruplex as indicated by UV/VIS spectroscopy. To a 10 μM solution of N,N′-bis(2-dimethylaminoethyl)-3,4,9,10-perylenetetracarboxylic acid diimide in 20 mM phosphate buffer containing 100 mM KCl, pH 7.0 in a quartz cuvette was added 10 μL aliquots of a 3 mM solution of d(TTAGGGT)4 (SEQ ID No. 6). After each addition the UV/VIS spectrum was recorded.
as §3

Raji = test: MTT cytotoxicity assay, Raji; type: cell-based, human; settings: 72 hours
Method: as §2

d(TTAGGG)4 G-quadruplex = test: NMR imino proton titration of G-quadruplex; type: binding, human; settings: overall stoichiometry 1:1, 500 MHz
Method: (C) Compounds may be selected for their ability to interact with human DNA G-quadruplex as indicated by NMR spectroscopy. The imino proton spectrum (9-12 ppm) of a solution of d(TTAGGG)4 (SEQ ID No. 1) in D2O/H2O (10:90) was determined at 500 MHz. Aliquot of N,N′-bis(2-piperdinoethyl)-3,4,9,10-perylenetetracarboxylic acid diimide were added and the imino proton spectrum recorded.

[6] = system: G-quadruplex in template DNA PQ74; test: DNA Synthesis Arrest Assay (Taq polymerase primer extension, PQ74 template); type: biochemical
Method: It has been shown that DNA sequences with quadruplex-forming potential present obstacles to DNA synthesis by DNA polymerases in a K^+ dependent manner. This K^+ dependent block to DNA polymerase is a selective and sensitive indicator of the formation of intramolecular quadruplexes (Weitzmann, et al., 1996).
The assay is a modification of that described by Weitzmann, et al. Briefly, primers (24 nM, sequence: 5′-TAATACGACTCACTATAG-3′) (SEQ ID No. 9) labeled with [γ-^32P]ATP were mixed with template DNA PQ74(12 nM, sequence: […] […]-3′) (SEQ ID No. 10) in a Tris-HCl buffer (10 mM Tris, pH 8.0) containing 5 mM K^+ and heated at 90° C. for 4 mm. After cooling at room temperature for 15 mm. potential G-quadruplex-interactive compounds were then added to various concentrations. The primer extension reactions were initiated by adding dNTP (final concentration 100 μM), MgCl2 (final concentration 3 mM) and Taq polymerase (2.5 U/reaction, Boehringer Mannheim). The reactions were incubated at 55° C. for 15 mm. then stopped by adding an equal volume of stop buffer (95% formamide, 10 mM EDTA; 10 mM NaGH, 0.1% xylene cyanol. 0.1% bromophenol blue). The products were separated on a 12% polyacrylamide sequencing gel. The gels were then dried and visualized on a phosphorimager (Molecular Dynamics model 445 S1).
Using the DOCK screening methods above, the carbocyanine group of compounds were identified as potential G-quadruplex interactive agents. […] Each compound was assayed at a concentration of 20 μM.

telomerase = test: Standard telomerase primer extension assay without PCR amplification; type: biochemical, human; settings: at 50 μM, confirmatory tests
Method: The identified inhibitors may be used therapeutically to interfere with the function of telomerase and thus to treat cancers.
Briefly, the 18-mer telomeric primer d[TTAGGG]3 (SEQ ID No. 1) (1 μM) without or with N,N′-bis(2-dimethylaminoethyl)-3,4,9,10-perylenetetracarboxylic acid diimide was elongated with telomerase in the presence of 1.5 μM of [α-^32P]-dGTP (800 Ci mmol^−1, 10 mCi ml^−1) with 1 mM dATP and 1 mM dTTP. The extension products were isolated and visualized by autoradiography after denaturing gel electrophoresis.

C[N+]1(CCC(=O)Nc2ccc3c(c2)C(=O)c2ccc(NC(=O)CC[N+]4(C)CCCCC4CO)cc2C3=O)CCCCC1CO.[I-].[I-] (stereo not drawn) [BSU-1051]
ΔTm of G-quadruplex ([1]; 20 μM BSU-1051): about 20 °C
temperature up to which polymerase pausing is observed ([1]; in the presence of BSU-1051, without ligand pausing fades out at 55° C.): 65 °C
polymerase pausing on 7-deaza-dG substituted templates [2]: no significant pausing
ΔTm of G-quadruplex ([3]; 20 μM BSU-1051): about 20 °C
temperature up to which polymerase pausing is observed ([3]; 20 μM BSU-1051, without ligand pausing almost lost at around 65° C.): 74 °C
primer extension by Taq DNA polymerase ([3]; 100 μM BSU-1051, 55° C., PQ74 or HT4 template): completely inhibited

O=C1c2ccc3c4ccc5c6c(ccc(c7ccc(c2c37)C(=O)N1CCCN1CCOCC1)c64)C(=O)N(CCCN1CCOCC1)C5=O [KeTEL01, N,N′-bis(3-morpholinopropyl)3,4,9,10-perylenetetracarboxilic acid diimide]
time required for absorption at 488 nm to reach one-half of its equilibrium value [4]: 60 min
IC50 (MCF-7): > 100 µM
changes in the UV/VIS spectrum upon addition of calf thymus DNA [5]: No changes
cytotoxic effect, MTT (human cancer cells): no cytotoxic effect
IC50 (PC-3): > 100 µM
IC50 (BT-20): > 100 µM
hyperchromicity at 510 nm (d(TTAGGGT)4 G-quadruplex): ~40%
hyperchromicity at 548 nm (d(TTAGGGT)4 G-quadruplex): ~100%
hypochromicity at 488 nm (d(TTAGGGT)4 G-quadruplex): ~40%
IC50 (Raji): > 100 µM

O=C1c2ccc3c4ccc5c6c(ccc(c7ccc(c2c37)C(=O)N1CCN1CCCCC1)c64)C(=O)N(CCN1CCCCC1)C5=O [N,N′-bis(2-piperdinoethyl)-3,4,9,10-perylenetetracarboxylic acid diimide]
upfield shift of G6 imino resonance (d(TTAGGG)4 G-quadruplex): > 0.2 ppm
DNA synthesis arrest (FIG. 8) ([6]; 0.5-50 μM, PQ sequence): DNA synthesis arrest

CCN1/C(=C/C=C/c2sc3ccccc3[n+]2CC)Sc2ccccc21.[I-] [UT-SK-002, diethylthiocarbocyanine iodide]
inhibition of telomerase (telomerase): 10-35%
Stop (F + P)rel: relative amount of both full-length and paused products ([6]; compound 20 μM): 88%
Stop (P/T)rel: relative ratio of paused products to total products ([6]; compound 20 μM): 139%

Reference: patent US6689887B2, “Inhibition of human telomerase by a G-quadruplex-interaction compound” (Board of Regents, The University of Texas System, priority 1998, dated 2004)
